Test results from patent publication US20050101595A1, “N-containing cycloalkyl-substituted amino-thiazole derivatives and pharmaceutical compositions for inhibiting cell proliferation and methods for their use” (PFIZER INC., priority 2003, published 2005).
Counter-ions that a name gives are not always drawn. Like-named read-outs stand apart in the source and are kept apart here.

How the values were obtained:
[1] = target: human CDK4 and genetically truncated (1-264) cyclin D3 (Homo sapiens, UniProt P11802); assay: Inhibition of CDK4/Cyclin D Retinoblastoma Kinase Activity; assay type: biochemical; details: for Ki: apparent Ki, CDK4/truncated cyclin D3, Rb fragment substrate, 25 μM ATP
Summary of the method: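 Apparent Ki values derive from fitting activity at varied inhibitor concentrations to a competitive (or competitive tight-binding) model. Kinase reactions used 5 nM CDK4/cyclin D3(1-264), Rb fragment substrate and 25 μM ATP. Incubation ran 20 min at 30 °C, extended to 60 min under linear conditions for tight binders.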

HCT-116 cell line = assay: Inhibition of cell growth, tetrazolium salt (MTT) assay; assay type: cell-based; details: for IC50: Homo sapiens, HCT-116, 120 h, MTT, three to five days, read-out: HCT-116 IC50; for HCT-116 % Inhibition at 0.25 μM: 0.25 μM compound
Summary of the method: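 Cells in McCoy's 5A medium were left 4 h, then given graded compound concentrations in 0.5% (v/v) DMSO and incubated three to five days at 37° C (5% CO2). MTT was added to 0.2 mg/mL for 4 h more; DMSO-solubilized formazan was read at 540 nm against 0.5% DMSO-only controls.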

CDK2/Cyclin A = CDK2/Cyclin A (Homo sapiens, UniProt P24941); assay: Inhibition of CDK2/Cyclin A Retinoblastoma Kinase Activity; assay type: biochemical; details: for Ki: apparent Ki, CDK2/proteolyzed cyclin A, Rb fragment substrate, 25 μM ATP; for CDK2 % Inhibition At 0.03 μM: Table 2
Summary of the method: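 Percent inhibition is calculated against DMSO-only wells after subtracting no-enzyme background. The enzyme is human CDK2 complexed with proteolyzed cyclin A, used at 10 nM or 19 nM on an Rb fragment with 25 μM [32/33P]ATP, at pH 7.4 and 30° C.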

[2] = 0.1 μM compound, HCT-116, Table 4
[3] = 0.1 μM compound, HCT-116, Table 3

Sequence of human CDK4 and genetically truncated (1-264) cyclin D3 (P11802 whole entry, the tested form may be a part): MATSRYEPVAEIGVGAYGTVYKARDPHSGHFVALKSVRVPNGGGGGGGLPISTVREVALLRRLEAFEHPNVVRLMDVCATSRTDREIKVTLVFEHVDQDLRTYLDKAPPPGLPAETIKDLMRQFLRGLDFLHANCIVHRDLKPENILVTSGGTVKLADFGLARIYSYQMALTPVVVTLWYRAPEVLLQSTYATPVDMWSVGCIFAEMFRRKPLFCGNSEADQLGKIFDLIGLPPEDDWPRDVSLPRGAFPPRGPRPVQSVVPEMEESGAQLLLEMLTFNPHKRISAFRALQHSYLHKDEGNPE
Sequence of human CDK4 and genetically truncated (1-264) cyclin D3 (P30281 1-264 partner): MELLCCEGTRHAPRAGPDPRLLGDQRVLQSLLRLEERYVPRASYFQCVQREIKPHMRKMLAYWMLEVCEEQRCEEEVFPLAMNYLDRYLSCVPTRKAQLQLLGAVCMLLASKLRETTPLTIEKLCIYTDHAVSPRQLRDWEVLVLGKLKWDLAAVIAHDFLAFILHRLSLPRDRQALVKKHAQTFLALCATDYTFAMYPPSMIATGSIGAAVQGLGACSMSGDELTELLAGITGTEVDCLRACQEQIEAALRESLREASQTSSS

## Nc1nc(NC2CCN(Cc3ccccc3)CC2)sc1C(=O)c1c(F)cccc1F [Example A3, 1-[4-Amino-2-(1-benzyl-piperidin-4-ylamino)-thiazol-5-yl]-1-(2,6-difluoro-phenyl)-methanone]
[1]
  Ki: 130 nM
HCT-116 cell line; first HCT-116 column (c4)
  IC50: 1700 nM
HCT-116 cell line; second HCT-116 column (c5)
  IC50: 3100 nM
CDK2/Cyclin A
  Ki: 490 nM

## CC(C)NCCOc1ccc(S(=O)(=O)N2CCC(Nc3nc(N)c(C(=O)c4c(F)cccc4F)s3)CC2)cn1 [Example H19, (4-Amino-2-{1-[6-(2-isopropylamino-ethoxy)-pyddine-3-sulfonyl]-piperidin-4-ylamino}-thiazol-5-yl)-(2,6-difluoro-phenyl)-methanone Hydrochloride Salt]
[1]
  Ki: 0.52 nM
HCT-116 cell line; first HCT-116 column (c4)
  IC50: 180 nM
HCT-116 cell line; second HCT-116 column (c5)
  IC50: 2500 nM
CDK2/Cyclin A
  Ki: 1.5 nM

## Nc1nc(NC2CCN(C(=O)C3(c4ccccc4)CC3)CC2)sc1C(=O)c1c(F)cccc1F [Example R90]
[1]; at 0.03 μM
  CDK4 % Inhibition at 0.03 μM: −6%
HCT-116 cell line; HCT-116 cells, at 0.1 μM
  HCT-116 % Inhibition at 0.1 μM: 0%
HCT-116 cell line; HCT-116 cells
  HCT-116 5 Inhibition at 0.25 μM: 19
CDK2/Cyclin A; at 0.03 μM
  CDK2 % Inhibition at 0.03 μM: −2%

## COC(=O)CCc1ccc(S(=O)(=O)N2CCC(Nc3nc(N)c(C(=O)c4c(F)cccc4F)s3)CC2)cc1 [Example F46]
[1]
  Ki: 2 nM
HCT-116 cell line; first HCT-116 column (c4)
  IC50: 790 nM
HCT-116 cell line; second HCT-116 column (c5)
  IC50: > 5000 nM
CDK2/Cyclin A
  Ki: 0.8 nM

## N#Cc1cccc(NC(=O)N2CCC(Nc3nc(N)c(C(=O)c4c(F)cccc4F)s3)CC2)c1 [Example O43]
[1]; 0.03 μM compound, Table 2
  CDK4 % Inhibition at 0.03 μM: 10%
HCT-116 cell line; HCT-116, Table 2
  HCT-116 % Inhibition at 0.25 μM: 12%
CDK2/Cyclin A; 0.03 μM compound
  CDK2 % Inhibition At 0.03 μM: 31%

## Cc1cc(C(=O)N2CCC(Nc3nc(N)c(C(=O)c4c(F)cccc4F)s3)CC2)no1 [Example R64]
[1]; at 0.03 μM
  CDK4 % Inhibition at 0.03 μM: 10%
HCT-116 cell line; HCT-116 cells, at 0.1 μM
  HCT-116 % Inhibition at 0.1 μM: 0%
HCT-116 cell line; HCT-116 cells
  HCT-116 5 Inhibition at 0.25 μM: 42
CDK2/Cyclin A; at 0.03 μM
  CDK2 % Inhibition at 0.03 μM: 9%

## Nc1nc(NC2CCN(C(=O)c3ccc(F)c(F)c3)CC2)sc1C(=O)c1c(F)cccc1F [Example Q73]
[1]; 0.03 μM compound, Table 4
  CDK4 % Inhibition at 0.03 μM: 78%
HCT-116 cell line; [2]
  HCT-116 % Inhibition at 0.1 μM: 3%
HCT-116 cell line; HCT-116, Table 4
  HCT-116 % Inhibition at 0.25 μM: 33%
CDK2/Cyclin A; 0.03 μM compound, Table 4
  CDK2 % Inhibition at 0.03 μM: 52%

## CN1CCCC(Oc2ccc(S(=O)(=O)N3CCC(Nc4nc(N)c(C(=O)c5c(F)cccc5F)s4)CC3)cn2)C1 (stereo not drawn) [Example H16, 1-(4-Amino-2-{1-[6-(1-methyl-piperidin-3RS-yloxy)-pyridin-3-sulfonyl]-piperidin-4-ylamino}-thiazol-5-yl)-1-(2,6-difluoro-phenyl)-methanone Hydrochloride]
[1]
  Ki: 0.28 nM
HCT-116 cell line; first HCT-116 column (c4)
  IC50: 57 nM
HCT-116 cell line; second HCT-116 column (c5)
  IC50: 500 nM
CDK2/Cyclin A
  Ki: 0.48 nM

## CC1CCC(NCCS(=O)(=O)N2CCC(Nc3nc(N)c(C(=O)c4c(F)cccc4F)s3)CC2)CC1 (mixture of isomers) [Example K40, (4-Amino-2-{1-[2-(4(cis/trans)-methyl-cyclohexylamino)-ethanesulfonyl]-piperidin-4-ylamino}-thiazol-5-yl)-(2,6-difluoro-phenyl)-methanone]
[1]
  Ki: 2.1 nM
HCT-116 cell line; first HCT-116 column (c4)
  IC50: 66 nM
HCT-116 cell line; second HCT-116 column (c5)
  IC50: 280 nM
CDK2/Cyclin A
  Ki: 0.51 nM

## COc1cc(C(=O)N2CCC(Nc3nc(N)c(C(=O)c4c(F)cccc4F)s3)CC2)cc(OC)c1OC [Example Q22]
[1]; 0.03 μM compound, Table 4
  CDK4 % Inhibition at 0.03 μM: 73%
HCT-116 cell line; [2]
  HCT-116 % Inhibition at 0.1 μM: 16%
HCT-116 cell line; HCT-116, Table 4
  HCT-116 % Inhibition at 0.25 μM: 48%
CDK2/Cyclin A; 0.03 μM compound, Table 4
  CDK2 % Inhibition at 0.03 μM: 24%

## CCN(CC)CCOc1ccc(S(=O)(=O)N2CCC(Nc3nc(N)c(C(=O)c4c(F)cccc4F)s3)CC2)cn1 [Example H18, (4-Amino-2-{1-[6-(2-diethylamino-ethoxy)-pyridine-3-sulfonyl]-piperidin-4-ylamino}-thiazol-5-yl)-(2,6-difluoro-phenyl)-methanone Trifluoroacetic Acid Salt]
[1]
  Ki: 0.3 nM
HCT-116 cell line; first HCT-116 column (c4)
  IC50: 55 nM
HCT-116 cell line; second HCT-116 column (c5)
  IC50: > 500 nM
CDK2/Cyclin A
  Ki: 1.6 nM

## Cc1nccn1-c1ccc(S(=O)(=O)N2CCC(Nc3nc(N)c(C(=O)c4c(F)cccc4F)s3)CC2)cn1 [Example G26, 1-(4-Amino-2-{1-[6-(2-methyl-imidazol-1-yl)-pyridine-3-sulfonyl]-piperidin-4-ylamino}-thiazol-5-yl)-1-(2,6-difluoro-phenyl)-methanone]
[1]
  Ki: 1.3 nM
HCT-116 cell line; first HCT-116 column (c4)
  IC50: 140 nM
HCT-116 cell line; second HCT-116 column (c5)
  IC50: 220 nM
CDK2/Cyclin A
  Ki: 0.64 nM

## COCCNCCS(=O)(=O)N1CCC(Nc2nc(N)c(C(=O)c3c(F)cccc3F)s2)CC1 [Example K25, (4-Amino-2-{1-[2-(2-methoxy-ethylamino}-ethanesulfonyl]-piperidin-4-ylamino}-thiazol-5-yl)-(2,6-difluoro-phenyl)-methanone Trifluoroacetic Acid Salt.]
[1]
  Ki: 1.4 nM
HCT-116 cell line; first HCT-116 column (c4)
  IC50: 880 nM
HCT-116 cell line; second HCT-116 column (c5)
  IC50: 2600 nM
CDK2/Cyclin A
  Ki: 4.4 nM

## CCCCOc1ccc(C(C)(C)CC)cc1S(=O)(=O)N1CCC(Nc2nc(N)c(C(=O)c3c(F)cccc3F)s2)CC1 [Example P74]
[1]; 0.03 μM compound, Table 3
  CDK4 % Inhibition at 0.03 μM: 4%
HCT-116 cell line; [3]
  HCT-116 % Inhibition at 0.1 μM: 19%
HCT-116 cell line; HCT-116, Table 3
  HCT-116 % Inhibition at 0.25 μM: 27%
CDK2/Cyclin A; 0.03 μM compound, Table 3
  CDK2 % Inhibition at 0.03 μM: −30%

## Nc1nc(NC2CCN(C(=O)c3ccc(N=Nc4ccccc4)cc3)CC2)sc1C(=O)c1c(F)cccc1F [Example R13]
[1]; at 0.03 μM
  CDK4 % Inhibition at 0.03 μM: 69%
HCT-116 cell line; HCT-116 cells, at 0.1 μM
  HCT-116 % Inhibition at 0.1 μM: 0%
HCT-116 cell line; HCT-116 cells
  HCT-116 5 Inhibition at 0.25 μM: 42
CDK2/Cyclin A; at 0.03 μM
  CDK2 % Inhibition at 0.03 μM: 32%

## COC(=O)c1ccc(C(=O)N2CCC(Nc3nc(N)c(C(=O)c4c(F)cccc4F)s3)CC2)cc1 [Example R33]
[1]; at 0.03 μM
  CDK4 % Inhibition at 0.03 μM: 80%
HCT-116 cell line; HCT-116 cells, at 0.1 μM
  HCT-116 % Inhibition at 0.1 μM: 1%
HCT-116 cell line; HCT-116 cells
  HCT-116 5 Inhibition at 0.25 μM: 49
CDK2/Cyclin A; at 0.03 μM
  CDK2 % Inhibition at 0.03 μM: 58%

## Nc1nc(NC2CCN(C(=O)[C@H](Cc3ccccc3)NS(=O)(=O)c3ccc([N+](=O)[O-])cc3)CC2)sc1C(=O)c1c(F)cccc1F [Example R74]
[1]; at 0.03 μM
  CDK4 % Inhibition at 0.03 μM: 20%
HCT-116 cell line; HCT-116 cells, at 0.1 μM
  HCT-116 % Inhibition at 0.1 μM: 0.12%
HCT-116 cell line; HCT-116 cells
  HCT-116 5 Inhibition at 0.25 μM: 42
CDK2/Cyclin A; at 0.03 μM
  CDK2 % Inhibition at 0.03 μM: 3%

## Cc1ccc(C)c(C(=O)N2CCC(Nc3nc(N)c(C(=O)c4c(F)cccc4F)s3)CC2)c1 [Example R128]
[1]; at 0.03 μM
  CDK4 % Inhibition at 0.03 μM: 7%
HCT-116 cell line; HCT-116 cells, at 0.1 μM
  HCT-116 % Inhibition at 0.1 μM: 0%
HCT-116 cell line; HCT-116 cells
  HCT-116 5 Inhibition at 0.25 μM: 56
CDK2/Cyclin A; at 0.03 μM
  CDK2 % Inhibition at 0.03 μM: 14%

## Cc1cncn1-c1ccc(S(=O)(=O)N2CCC(Nc3nc(N)c(C(=O)c4c(F)cccc4F)s3)CC2)cn1 [Example G28, 1-(4-Amino-2-{1-[6-(5-methyl-imidazol-1-yl)-pyridine-3-sulfonyl]-piperidin-4-ylamino}-thiazol-5-yl)-1-(2,6-difluoro-phenyl)-methanone Hydrochloride]
[1]
  Ki: 0.85 nM
HCT-116 cell line; first HCT-116 column (c4)
  IC50: 160 nM
HCT-116 cell line; second HCT-116 column (c5)
  IC50: 330 nM
CDK2/Cyclin A
  Ki: 0.4 nM

## Nc1nc(NC2CCN(S(=O)(=O)CCCN3CC=CCC3)CC2)sc1C(=O)c1c(F)cccc1F [Example K11, 1-(4-Amino-2-{1-[3-(3,6-dihydro-2H-pyridin-1-yl)propane-1-sulfonyl]-piperidin-4-ylamino}-thiazol-5-yl)-1-(2,6-difluoro-phenyl)-methanone.]
[1]
  Ki: 1.8 nM
HCT-116 cell line; first HCT-116 column (c4)
  IC50: 130 nM
HCT-116 cell line; second HCT-116 column (c5)
  IC50: 1300 nM
CDK2/Cyclin A
  Ki: 2.9 nM

## Nc1nc(NC2CCN(S(=O)(=O)c3cccc4cccnc34)CC2)sc1C(=O)c1c(F)cccc1F [Example P6]
[1]; 0.03 μM compound, Table 3
  CDK4 % Inhibition at 0.03 μM: 18%
HCT-116 cell line; [3]
  HCT-116 % Inhibition at 0.1 μM: 22%
HCT-116 cell line; HCT-116, Table 3
  HCT-116 % Inhibition at 0.25 μM: 23%
CDK2/Cyclin A; 0.03 μM compound, Table 3
  CDK2 % Inhibition at 0.03 μM: −32%

## COc1ccc(C)cc1NC(=O)N1CCC(Nc2nc(N)c(C(=O)c3c(F)cccc3F)s2)CC1 [Example O50]
[1]; 0.03 μM compound, Table 2
  CDK4 % Inhibition at 0.03 μM: 13%
HCT-116 cell line; HCT-116, Table 2
  HCT-116 % Inhibition at 0.25 μM: 62%
CDK2/Cyclin A; 0.03 μM compound
  CDK2 % Inhibition At 0.03 μM: 37%

## Cc1ccc(S(=O)(=O)N2CCC(Nc3nc(N)c(C(=O)c4c(F)cccc4F)s3)CC2)cc1 [Example P23]
[1]; 0.03 μM compound, Table 3
  CDK4 % Inhibition at 0.03 μM: 67%
HCT-116 cell line; [3]
  HCT-116 % Inhibition at 0.1 μM: 19%
HCT-116 cell line; HCT-116, Table 3
  HCT-116 % Inhibition at 0.25 μM: 32%
CDK2/Cyclin A; 0.03 μM compound, Table 3
  CDK2 % Inhibition at 0.03 μM: 64%
